Here are results for one compound from publication PMC5552782, “Crystal Structure of MpPR-1i, a SCP/TAPS protein from Moniliophthora perniciosa, the fungus that causes Witches’ Broom Disease of Cacao” (Scientific Reports, 2017).

The test addresses T1, MpPR-1i (Moniliophthora perniciosa, UniProt H6U756).
T1 construct: gene PR-1i; signal peptide removed; cDNA from green broom stage; modified pET SUMO, E. coli SHuffle; His-SUMO tag cut with ULP-1; untagged; monomer
The test is described as follows: radioligand binding, Q-sepharose capture, scintillation counting.

What is called Kd is the constant that tells how readily two partners part at equilibrium. Higher therefore signals a looser complex.

T1 sequence (H6U756 entry or part of it): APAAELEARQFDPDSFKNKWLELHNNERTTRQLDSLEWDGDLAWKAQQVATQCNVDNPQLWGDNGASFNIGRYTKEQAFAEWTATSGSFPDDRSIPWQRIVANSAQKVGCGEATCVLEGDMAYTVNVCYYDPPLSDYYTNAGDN

For `CCCCCCCCCCCCCCCC(=O)O` [palmitic acid], the affinity, expressed as Kd, was 107 µM.
